Test results taken from US20210301038A1, “POLYSIALIC ACID AND DERIVATIVES THEREOF, PHARMACEUTICAL COMPOSITION AND METHOD OF PRODUCING POLYSIALIC ACID” (Medizinische Hochschule Hannover (MHH), priority 2018, published 2021).
Where a name gives a salt, the structure may show the parent alone.

Key:
[1] = tested on: layer II/III - layer V synapses in mPFC slices; test: TBS-induced LTP (fEPSP) in sham- and endoNF-treated mPFC slices from C57BL/6 mice; assay type: cell-based, mouse; conditions: endoNF-treated slices; Ro 25-6981 0.3 μM; DP12 1 μg/ml; DP5 1 or 10 μg/ml; sarcosine 0.75 mM; SSR 504734 3 μM
Protocol: (§1) For endoNF treatment in C57BL/6J mice, slices were first allowed to recover for 20 min at room temperature (22-24° C.) in recording aCSF and were then placed in a 24-well plate to be incubated in 2 ml of aCSF without (sham) or with addition of endoNF (10 μg/ml) at 35° C. for 2 hours. The 24-well plate was installed in a water bath (ED, Julabo, Seelbach, Germany). For field excitatory postsynaptic potential (fEPSP) recordings in knockout and transgenic mice, mPFC slices were incubated in recording aCSF for >2 hours at room temperature before recordings. For patch-clamp recordings in knockout mice, slices were incubated first at 35° C. for 20 min and then at room temperature for >30 min before recordings started. The aCSF was continuously gassed with 95% O2/5% CO2 during all incubation steps and recordings.
(§2) Prefrontal slices (400 μm) were transferred to a submerged-type recording MC membrane chamber (volume 2 ml; Scientific Systems Design Inc., Mississauga, Ontario, Canada) perfused with oxygenated recording ACSF at a flow rate of 4 ml/min and maintained at room temperature (22-25° C.), unless stated otherwise in the “Results”-section given below. Field EPSPs were evoked and recorded using thin-walled glass electrodes (borosilicate glass, wall thickness 0.188, length 100, and outer diameter 1.5 mm, Hilgenberg, Malsfeld, Germany) filled with recording aCSF in 400 μm-thick mPFC slices. In order to stimulate electrically the input fibers of pyramidal cells, the stimulation electrode (0.3-0.5 MΩ) was inserted into layers II/III of the prelimbic cortex. The recording electrode (2-2.5 MΩ) was placed in the vicinity of dendrites and cell bodies of pyramidal neurons in layer V (Huang et al., 2004).
(§3) Before LTP induction, basal synaptic transmission was recorded in each slice and the relationship between stimulus intensity and fEPSP slope was measured. Basal fEPSPs were evoked at 0.05 Hz for at least 10 min. The supramaximal slope was determined by gradually increasing the stimulation intensity until a population spike in the fEPSP became first visible. The stimulation intensity was adjusted to elicit a basal fEPSP with a slope of approximately 50% of the supramaximal value.
(§4) LTP was induced by application of five trains of theta-burst stimulation (TBS) with an inter-theta-train interval of 20 s (Brennaman et al., 2011). Each train consisted of 8 bursts delivered at 5 Hz. Each burst consisted of four pulses delivered at 100 Hz. Duration of pulses was 0.2 ms. For calculation of the LTP level, the mean fEPSP slope was measured between 50-60 min after TBS delivery, and it was then normalized to mean baseline fEPSP slope during 0-10 min before TBS. Stimulus artifacts in representative fEPSP examples in figures were blanked to facilitate the perception of fEPSPs recorded in the mPFC. Recording and analysis of LTP in St8Sia4^−/− mice was performed in a blind manner.
The enzyme endosialidase NF (endoNF) (Stummeyer et al., 2005) and the short form of polysialic acid composed of 10 or twelve sialic acid residues (DP10 and DP12) were purified as described previously (Keys et al., 2014). Sialic acid (N-acetylneuraminic acid, DP1) and the pentamer of sialic acid sodium salt (DP5) were obtained from EY Laboratories (San Mateo, Calif., USA). DMB-labelled DP2 and DP12, and non-labelled avDP10-9OAc were synthesized in the laboratory of Rita Gerardy-Schahn (see sections Synthesis of DMB-DP2 and DMB-DP12 and Synthesis of avDP10-9OAc, respectively). […]

[2] = tested on: mPFC slices from St8sia4−/− mice; test: TBS-induced LTP in mPFC slices from ST8SIA4-deficient mice and wild-type littermates; assay type: cell-based, mouse; conditions: Ro 25-6981 0.3 μM, DP12 1 μg/ml, sarcosine 0.75 mM
Protocol: as §1, §2, §3, §4

[3] = tested on: C57BL/6J mice with intra-mPFC endoNF injection; test: Novel object recognition test before and after intra-mPFC endoNF injection; assay type: in vivo, mouse
Protocol: Guide cannulas were fabricated using stainless steel tubing with outer/inner diameter Ø 0.711/0.483 mm (Science Products, Germany). Dummy cannulas were made from entomological pins, size 2, Ø 0.41 mm (FST, Germany). Chronic implantation of cannulas into the mPFC in mice was performed as described previously for intrahippocampal injections (Kochlamazashvili et al., 2012; Senkov et al., 2015; Senkov et al., 2006).
Acute injection of endoNF in vivo was done under a short isoflurane anesthesia. For intra-mPFC injection, we used a digitally controlled infusion system (UltraMicroPump, UMP3, and Micro4 Controller, WPI, USA) fed with a 10 μl-Hamilton syringe and NanoFil 135 μm (35 GA) beveled needle. The thin (135 μm) part of the needle went into the mouse brain during injection, whereas its thick part (430 μm) fit perfectly in the guide cannula (inside 483 μm). Injections were performed as follows: 1) a mouse was anesthetized with 1-3% isoflurane as during implantation; 2) it was put into the stereotaxic frame; 3) the dummy cannula was gently removed from the left guide cannula; 4) a NanoFil injecting needle was carefully placed inside of the guide cannula and advanced further down until reaching the marker (made with a permanent pen at the needle shank (430 μm) to visualize the point when the needle should reach the surface of the brain coming out of the guide cannula (equal to the length of guide cannula); 5) once the marker was reached, a slow (10 μm increment) step dial was used to deepen the needle into the brain; 6) endoNF (2 μg/μl) or vehicle was injected with the following settings: 250 nl per site as deep as 1.5 and 2.25 mm from the brain surface (total injection volume per hemisphere 500 nl, injection rate of 3 nl/s); 7) after injection was complete (˜5 min), the needle was left in the injection site for another 5 min and then gently removed; 8) the dummy cannula was then put back to its place; 9) the same procedure was performed for the right hemisphere. The whole injection process took approximately 20-25 min under isoflurane anesthesia, and the mice recovered rather quickly, starting to move in approximately 2-3 min after being returned to their home cages. Complete recovery of a mouse after such short anesthesia usually occurs within 3-5 min. After injection, mice were returned to their animal facility. Behavior experiments started on the day after injection at approximately the same time, so that we could perform cognitive tests 24 hours after injection.
A white open field arena (50×50×30 cm) was used in the novel object recognition task. All behavior was video recorded and analyzed automatically by software (ANY-maze, version 4.99, Stoelting Co., Wood Dale, Ill.). […]

[4] = tested on: NMDAR-EPSCs (GluN1/GluN2B receptors); test: Evoked NMDAR-EPSCs, whole-cell patch-clamp of layer V pyramidal neurons in sham- or endoNF-treated mPFC slices; assay type: cell-based, mouse; conditions: 0.1 μM, in the presence of 5-HT4 antagonist RS 39604 (10 μM)
Text: Each mouse was quickly sacrificed by cervical dislocation. After decapitation, the brain was rapidly removed from the skull and placed in ice-cold artificial cerebrospinal fluid (aCSF) equilibrated with 95% O2/5% CO2, which was composed of the following (in mM): 250 sucrose, 24 NaHCO3, 25 glucose, 2.5 KCl, 1.25 NaH2PO4, 2 CaCl2, and 1.5 MgCl2 (osmolarity 345-350 mOsm/kg, pH 7.4). Using a VT1200S vibratome (Leica, Nussloch, Germany), coronal slices containing the prelimbic and infralimbic cortices (1.9-1.3 mm anterior to bregma) were cut 350 μm or 400 μm thick, for patch clamp and extracellular recordings, respectively, in the same sucrose-containing aCSF. Then, the slices were transferred to a slice holding chamber filled with recording aCSF (osmolarity 300-305 mOsm/kg, pH 7.4) that contained 120 mM NaCl instead of sucrose (Eckhardt et al., 2000) and was continuously gassed with 95% O2/5% CO2.
as §1
For whole-cell patch-clamp recordings, layer V pyramidal neurons were visualized using a SliceScope Pro 6000 equipped with a 40× water-immersion objective and infrared differential interference contrast microscopy (Scientifica, Uckfield, UK). Pyramidal cells were identified by their triangular soma and long apical dendrites, and synaptically evoked excitatory postsynaptic currents (EPSCs) were recorded using patch pipettes (3-5 MQ) fabricated using borosilicate glass capillaries (wall thickness 0.315, length 100, outer diameter 1.5 mm, Hilgenberg) and a DMZ-Zeitz puller (Zeitz Instruments GmbH, Martinsried, Germany). The intracellular pipette solution contained the following (in mM): 140.7 Cs-methane-sulfonate, 5 NaCl, 1 MgCl2, 0.2 EGTA, 10 HEPES, 3 ATP-Mg, 0.3 Na-GTP, and 3.1 QX-314 (osmolarity 295 mOsm/kg, adjusted to pH 7.2 with CsOH). EPSCs were evoked by electrical pulses (0.2 ms) at 0.033 Hz via a glass pipette placed in layer II/III of the mPFC (identically to fEPSPs). Mixed EPSCs showing a fast AMPAR-mediated component and a slow NMDAR-mediated component were recorded at a −60 mV holding potential in whole-cell voltage-clamp mode in normal aCSF. The stimulation intensity was adjusted to evoke mixed EPSCs with amplitudes of approximately 300 pA. The slow NMDAR-mediated component of EPSCs was pharmacologically isolated at −60 mV in modified aCSF containing low Mg^2+ (0.1 mM) and high Ca^2+ (3.2 mM, for adjustment of divalent cation concentrations), the selective antagonist of α-amino-3-hydroxy-5-methyl-4-isoxazolepropionic acid (AMPA)/kainate receptors NBQX (10 μM), and the selective antagonist of γ-aminobutyric acid (GABA)B receptors CGP-55845 (2 μM) (Chen et al., 2003). The washout of Mg^2+ required at least 25 min. Recordings at a holding potential near the resting membrane potential allowed us to obtain stable NMDAR-EPSC recordings from pyramidal cells lasting for 1-1.5 hours. Series resistance (Rs, range 10-25 MΩ) was compensated (20-30%) and monitored continuously. Neurons in which Rs changed by more than 20% throughout the experiment were not included in the analysis. In voltage-clamp mode, membrane potential was not corrected for liquid junction potential. […]

| Compound | LTP level 50-60 min after TBS [1] | LTP magnitude ([2]; St8sia4+/+ mice) | LTP level 50-60 min after TBS ([2]; St8sia4−/− mice) | novel object recognition after intra-mPFC endoNF injection ([3]; 30 min before encoding, sarcosine 600 mg/kg i.p. (d2), DP12 (d5) and DP1 (d6) 1 mg/kg intranasally) | novel object recognition before endoNF injection ([3]; d-1, 600 mg/kg i.p. 30 min before the encoding phase) | inhibition of NMDAR-EPSC amplitude ([4]; endoNF-treated slices) [%] | inhibition of NMDAR-EPSC amplitude ([4]; sham-treated slices) [%] |
| --- | --- | --- | --- | --- | --- | --- | --- |
| O=C(N[C@@H](c1ccccc1)[C@@H]1CCCCN1)c1cccc(C(F)(F)F)c1Cl [SSR 504734, 2-chloro-N—[(S)-phenyl[(2S)-piperidin-2-yl]methyl]-3-trifluoromethyl benzamide] | rescued LTP | – | – | – | – | – | – |
| CNCC(=O)O [sarcosine, N-methylglycine] | fully restored to sham levels | no effect | full restoration of LTP levels | fully alleviated | normal object recognition | – | – |
| [H]/N=C(/NCCCCC)N/N=C/c1c[nH]c2ccc(OC)cc12 [tegaserod, tegaserod maleate] | – | – | – | – | – | ~30 | ~50 |
